Experimental data from patent US7572606B1 (Nereus Pharmaceuticals, Inc., priority 2005, dated 2009).
Where two headings read alike, the source gives them in different places.

Key:
Assay in all cases: NCI 60 cell line screen, sulforhodamine B, 48 h
Type in all cases: cell-based, human
NCI-H322M = conditions: Non-Small Cell Lung Cancer
Method: (§1) A detailed description of the screening procedure can be found at hypertext transfer protocol (http://) “dtp.nci.nih.gov/branches/btb/ivclsp.html.”
(§2) In brief, each of the 60 human tumor cell lines were grown in RPMI 1640 medium, supplemented with 5% fetal bovine serum and 2 mM L-glutamine. Cells were plated at their appropriate density in 96-well microtiter plates and incubated at 37° C., 5% CO2, 95% air and 100% relative humidity. […] Cells were incubated for an additional 48 hours and a sulforhodamine B protein assay was used to estimate cell viability or growth.

MDA-MB-435 = conditions: for CC50: Homo sapiens
Method: as §1, §2

UO-11 = tested on: UO-11
Method: as §1, §2

SR = conditions: Leukemia
Method: as §1, §2

COLO 205 = conditions: COLO 205, Colon Cancer
Method: as §1, §2

tGROV1 = conditions: tGROV1, Ovarian Cancer
Method: as §1, §2

HDP-92 = tested on: HDP-92
Method: as §1, §2

SK-MEL-21 = conditions: for CC50: Homo sapiens
Method: as §1, §2

A498 = tested on: A498
Method: as §1, §2

OVCAR-5 = conditions: OVCAR-5, Ovarian Cancer
Method: as §1, §2

RPMI-8226 = tested on: RPMI-8226
Method: as §1, §2

SK-MEL-2 = conditions: SK-MEL-2, Melanoma
Method: as §1, §2

LOX IMVI = conditions: Melanoma
Method: as §1, §2

SF-295 = conditions: SF-295, CNS Cancer
Method: as §1, §2

T86-0 = tested on: T86-0
Method: as §1, §2

HCT-116 = conditions: HCT-116, Colon Cancer
Method: as §1, §2

RXF393 = conditions: RXF393, Renal Cancer
Method: as §1, §2

MOLT-4 = tested on: MOLT-4
Method: as §1, §2

SF-268 = conditions: SF-268, CNS Cancer
Method: as §1, §2

PC-3 = tested on: PC-3
Method: as §1, §2

SNB-75 = conditions: SNB-75, CNS Cancer
Method: as §1, §2

SW-620 = conditions: SW-620, Colon Cancer
Method: as §1, §2

HT29 = tested on: HT29
Method: as §1, §2

M14 = tested on: M14
Method: as §1, §2

EKVX = conditions: Non-Small Cell Lung Cancer
Method: as §1, §2

U251 = conditions: U251, CNS Cancer
Method: as §1, §2

NCI-H522 = conditions: NCI-H522, Non-Small Cell Lung Cancer
Method: as §1, §2

CAK1-1 = conditions: CAK1-1, Renal Cancer
Method: as §1, §2

KM12 = conditions: KM12, Colon Cancer
Method: as §1, §2

A549/ATCC = conditions: Non-Small Cell Lung Cancer
Method: as §1, §2

SN12C = conditions: Renal Cancer
Method: as §1, §2

[1] = Homo sapiens, 60 cell, read-out: Log10 LC50 (converted)
[2] = HDP-92, Non-Small Cell Lung Cancer

Compound: C[C@@]12OC(=O)[C@]1([C@@H](O)[C@@H]1C=CCCC1)NC(=O)[C@@H]2CCCl [Formula II-16, Salinosporamide A]
- Log10 G150 (NCI-H322M): <-8.00 Molar
- Log10 TGI (NCI-H322M): -5.48 Molar
- CC50 (MDA-MB-435; MDA-MB-435, read-out: LC50): < 0.01 µM
- CC50 (MDA-MB-435; MDA-MB-435, read-out: Log10 LC50 (converted)): < 0.01 µM
- Log10 G150 (MDA-MB-435; MDA-MB-435, Breast Cancer): <-8.00 Molar
- Log10 TGI (MDA-MB-435; MDA-MB-435, Breast Cancer): <-8.00 Molar
- CC50 (UO-11; [1]): 25.7 µM
- Log10 G150 (UO-11; UO-11, Renal Cancer): <-8.00 Molar
- Log10 TGI (UO-11; UO-11, Renal Cancer): -5.83 Molar
- Log10 G150 (SR): <-8.00 Molar
- Log10 TGI (SR): <-8.00 Molar
- Log10 G150 (COLO 205): <-8.00 Molar
- Log10 TGI (COLO 205): -6.19 Molar
- Log10 G150 (tGROV1): <-8.00 Molar
- Log10 TGI (tGROV1): -5.18 Molar
- Log10 G150 (HDP-92; [2]): <-8.00 Molar
- Log10 TGI (HDP-92; [2]): -7.77 Molar
- CC50 (HDP-92; [1]): 4.37 µM
- CC50 (SK-MEL-21; 60 cell, read-out: Log10 LC50 (converted)): < 0.01 µM
- CC50 (SK-MEL-21; SK-MEL-28, read-out: LC50): < 0.01 µM
- Log10 G150 (SK-MEL-21; SK-MEL-21, Melanoma): <-8.00 Molar
- Log10 TGI (SK-MEL-21; SK-MEL-21, Melanoma): <-8.00 Molar
- Log10 G150 (A498; A498, Renal Cancer): <-8.00 Molar
- Log10 TGI (A498; A498, Renal Cancer): <-8.00 Molar
- CC50 (A498; Homo sapiens, A498, read-out: Log10 LC50 (converted)): 0.0115 µM
- Log10 G150 (OVCAR-5): <-8.00 Molar
- Log10 TGI (OVCAR-5): -7.28 Molar
- CC50 (RPMI-8226; Homo sapiens, RPMI-8226, read-out: Log10 LC50 (converted)): > 100 µM
- Log10 G150 (RPMI-8226; RPMI-8226, Leukemia): <-8.00 Molar
- Log10 TGI (RPMI-8226; RPMI-8226, Leukemia): <-8.00 Molar
- Log10 G150 (SK-MEL-2): <-8.00 Molar
- Log10 TGI (SK-MEL-2): <-8.00 Molar
- Log10 G150 (LOX IMVI): <-8.00 Molar
- Log10 TGI (LOX IMVI): -7.87 Molar
- Log10 G150 (SF-295): <-8.00 Molar
- Log10 TGI (SF-295): <-8.00 Molar
- CC50 (T86-0; [1]): > 100 µM
- Log10 G150 (T86-0; T86-0, Renal Cancer): <-8.00 Molar
- Log10 TGI (T86-0; T86-0, Renal Cancer): -5.37 Molar
- Log10 G150 (HCT-116): <-8.00 Molar
- Log10 TGI (HCT-116): -7.14 Molar
- Log10 G150 (RXF393): <-8.00 Molar
- Log10 TGI (RXF393): <-8.00 Molar
- CC50 (MOLT-4; Homo sapiens, MOLT-4, read-out: Log10 LC50 (converted)): > 100 µM
- Log10 G150 (MOLT-4; MOLT-4, Leukemia): <-8.00 Molar
- Log10 TGI (MOLT-4; MOLT-4, Leukemia): <-8.00 Molar
- Log10 G150 (SF-268): <-8.00 Molar
- Log10 TGI (SF-268): -6.92 Molar
- CC50 (PC-3; Homo sapiens, PC-3, read-out: Log10 LC50 (converted)): 11.7 µM
- Log10 G150 (PC-3; PC-3, Prostate Cancer): <-8.00 Molar
- Log10 TGI (PC-3; PC-3, Prostate Cancer): -5.81 Molar
- Log10 G150 (SNB-75): <-8.00 Molar
- Log10 TGI (SNB-75): <-8.00 Molar
- Log10 G150 (SW-620): <-8.00 Molar
- Log10 TGI (SW-620): >-4.00 Molar
- Log10 G150 (HT29; HT29, Colon Cancer): <-8.00 Molar
- Log10 TGI (HT29; HT29, Colon Cancer): -7.37 Molar
- CC50 (HT29; Homo sapiens, HT-29, read-out: Log10 LC50 (converted)): 38 µM
- CC50 (M14; Homo sapiens, M14, read-out: Log10 LC50 (converted)): 0.186 µM
- Log10 G150 (M14; M14, Melanoma): <-8.00 Molar
- Log10 TGI (M14; M14, Melanoma): -7.94 Molar
- Log10 G150 (EKVX): <-8.00 Molar
- Log10 TGI (EKVX): -5.67 Molar
- Log10 G150 (U251): <-8.00 Molar
- Log10 TGI (U251): -5.99 Molar
- Log10 G150 (NCI-H522): <-8.00 Molar
- Log10 TGI (NCI-H522): <-8.00 Molar
- Log10 G150 (CAK1-1): <-8.00 Molar
- Log10 TGI (CAK1-1): >-4.00 Molar
- Log10 G150 (KM12): <-8.00 Molar
- Log10 TGI (KM12): -6.00 Molar
- Log10 G150 (A549/ATCC): <-8.00 Molar
- Log10 TGI (A549/ATCC): -4.70 Molar
- Log10 G150 (SN12C): <-8.00 Molar
- Log10 TGI (SN12C): <-8.00 Molar
